Experimental data from patent US10294275B2, “Site-selective functionalization of glycopeptide antibiotics” (Yale University, priority 2012, dated 2019).
≈ marks a conversion by molar mass, not a printed value.

Assays:
[1] = tested on: vancomycin-susceptible enterococci, ATCC 29212; assay: Minimum inhibitory concentration against VSE; format: cell-based; conditions: for MIC, VSE: vancomycin-susceptible enterococci, ATCC 29212
Description: (§1) The chemistry described above enabled direct synthesis of eleven previously unknown analogs of 3. The minimum inhibitory concentrations (MICs) for the new analogs as antibacterial agents as determined.

[2] = tested on: vancomycin-resistant enterococci (VanB), ATCC 51299; assay: Minimum inhibitory concentration against VRE (VanB); format: cell-based; conditions: for MIC, VRE (VanB): vancomycin-resistant enterococci, ATCC 51299
Description: as §1

[3] = tested on: methicillin-susceptible S. aureus, ATCC 29213; assay: Minimum inhibitory concentration against MSSA; format: cell-based; conditions: for MIC, MSSA: methicillin-susceptible S. aureus, ATCC 29213
Description: as §1

[4] = tested on: methicillin-resistant S. aureus, ATCC 43300; assay: Minimum inhibitory concentration against MRSA; format: cell-based; conditions: for MIC, MRSA: methicillin-resistant S. aureus, ATCC 43300
Description: as §1

[5] = tested on: vancomycin-resistant enterococci (VanA), MMX 486; assay: Minimum inhibitory concentration against VRE (VanA); format: cell-based; conditions: for MIC, VRE (VanA): MMX 486, vancomycin and teicoplanin resistant
Description: as §1

Staphylococcus aureus = conditions: cited from earlier work

CC(=O)N[C@H]1[C@H](O[C@@H]2c3ccc(c(Cl)c3)Oc3cc4cc(c3O[C@@H]3O[C@H](CO)[C@@H](O)[C@H](O)[C@H]3NC(=O)CCCCCCC(C)C)Oc3ccc(cc3Cl)C[C@H]3NC(=O)[C@H](N)c5ccc(O)c(c5)Oc5cc(O)cc(c5)[C@H](NC3=O)C(=O)N[C@H]4C(=O)N[C@H]3C(=O)N[C@@H]2C(=O)N[C@H](C(=O)O)c2cc(O)cc(O[C@H]4O[C@H](CO)[C@@H](O)[C@H](O)[C@@H]4O)c2-c2cc3ccc2O)O[C@H](CO)[C@@H](O)[C@@H]1O [Teicoplanin A2-2, reference compound]
MIC, VSE [1]: 0.25 µg/mL (≈ 0.133 µM)
MIC, VRE (VanB) [2]: 0.25 µg/mL (≈ 0.133 µM)
MIC, MSSA [3]: 0.5 µg/mL (≈ 0.266 µM)
MIC, MRSA [4]: 0.5 µg/mL (≈ 0.266 µM)
MIC, VRE (VanA) [5]: >64 µg/mL

CN[C@H](CC(C)C)C(=O)N[C@H]1C(=O)N[C@@H](CC(N)=O)C(=O)N[C@H]2C(=O)N[C@H]3C(=O)N[C@H](C(=O)N[C@H](C(=O)O)c4cc(O)cc(O)c4-c4cc3ccc4O)[C@H](O)c3ccc(c(Cl)c3)Oc3cc2cc(c3O[C@@H]2O[C@H](CO)[C@@H](O)[C@H](O)[C@H]2O[C@H]2C[C@](C)(N)[C@H](O)[C@H](C)O2)Oc2ccc(cc2Cl)[C@H]1O [Vancomycin, vancomycin, reference compound]
MIC ([1]; read-out: MIC, VSE): 2 µg/mL (≈ 1.38 µM)
MIC ([2]; Enterococcus, read-out: MIC, VRE (VanB)): 16 µg/mL (≈ 11 µM)
in vitro MIC against Staphylococcus aureus (Staphylococcus aureus): 0.25 to 10 µg/mL
MIC ([3]; Staphylococcus aureus, read-out: MIC, MSSA): 0.5 µg/mL (≈ 0.345 µM)
MIC ([4]; Staphylococcus aureus, read-out: MIC, MRSA): 1 µg/mL (≈ 0.69 µM)
MIC ([5]; Enterococcus, VRE, read-out: MIC, VRE (VanA)): > 64 µg/mL

teicoplanin [reference compound]
MIC, VSE [1]: 0.25 µg/mL
MIC, VRE (VanB) [2]: 0.25 µg/mL
MIC, MSSA [3]: 0.5 µg/mL
MIC, MRSA [4]: 0.5 µg/mL
MIC, VRE (VanA) [5]: >64 µg/mL
